Reference: patent publication US9546401B2, “Assays and methods for selecting a treatment regimen for a subject with depression” (The General Hospital Corporation, priority 2011, dated 2017)
Where two headings read alike, the source gives them in different places.

System: MDD patients carrying the indicated biomarkers
Method: Folate levels are classified as either low (<=2.5 ng/ml) or normal; and homocysteine levels as either normal or elevated (>=[…]). The presence or absence of at least one […] allele for the MTHFR gene are entered as a dichotomous variable (present or absent). […] Using folate as an example predicator, the presence or absence of a low serum-folate level along with treatment assignment can be entered in a 2×2, factorial ANOVA, using depression improvement scores (baseline minus endpoint HAM-D-17 scores) as the dependant variable. […] Similar analyses (i.e. separate 2×2 ANOVA's) can be performed substituting the presence of low folate levels for the presence of other predictors as described herein. Similarly, the effect of other predictors can be indicated by the interaction term representing the potential modulating influence of those variables.
The efficacy effect is determined by measuring the mean change in the HAMD-17 score and HAMD-28 score by the end of Phase I and Phase II, as compared to the baseline.

[1] = Phase I, BMI < 30 kg/m^2 and SAM/SAH >= median
[2] = Phase I, BMI >= 30 kg/m^2 and HNE-His >= median
[3] = Phase I, BMI*treat (interaction of BMI with the treatment)
[4] = Phase I, MTHFR 677 CC and BMI < 30 kg/m^2
[5] = Phase I, MTHFR 677 CT or TT and BMI >= 30 kg/m^2
[6] = Phase I, MTHFR 677 CT or TT and HNE-His >= median
[7] = Phase I, MTR 2756 AA and BMI < 30 kg/m^2
[8] = Phase I, MTR 2756 AA and HNE-His < median
[9] = Phase I, MTR 2756 AA and MTRR 66 AA
[10] = Phase I, MTR 2756 AA and MTRR 66 AA and SAM/SAH >= median
[11] = Phase I, MTR 2756 AA and SAM/SAH >= median
[12] = Phase I, MTR 2756 AG or GG and BMI >= 30 kg/m^2
[13] = Phase I, MTR 2756 AG or GG and MTRR 66 AG or GG
[14] = Phase I, MTR 2756 AG or GG and MTRR 66 AG or GG and HNE-His >= median
[15] = Phase I, MTRR 66 AA and SAM/SAH >= median
[16] = Phase I, MTRR 66 AG or GG and HNE-His >= median
[17] = Phase I, SAM/SAH < median and HNE-His >= median
[18] = Phase I, SAM/SAH >= median and HNE-His < median
[19] = Phase II, 25 =< BMI < 30 kg/m^2

CN1c2c(nc(N)[nH]c2=O)NC[C@@H]1CNc1ccc(C(=O)N[C@@H](CCC(=O)O)C(=O)O)cc1 [6(S)-5-MTHF, 6(S)-5-methyltetrahydrofolate] was tested, and the “Effect on change in HAMD-28 score” value (Phase I, BMI < 30 kg/m^2 and HNE-His < median) was 4.606, the “Effect on change in HAMD-17 score” value [1] was 4.333 and the “Effect on change in HAMD-28 score” value [1] was 4.333. For the same compound, the “Effect on change in HAMD-17 score” value (Phase I, BMI >= 30 kg/m^2) was −6.414, the “Effect on change in HAMD-28 score” value (Phase I, BMI >= 30 kg/m^2) was −6.677 and the “Effect on change in HAMD-17 score” value [2] was −6.569. For the same compound, the “Effect on change in HAMD-28 score” value [2] was −6.510, the “Effect on change in HAMD-17 score” value (Phase I, BMI >= 30 kg/m^2 and SAM/SAH < median) was −5.611 and the “Effect on change in HAMD-28 score” value (Phase I, BMI >= 30 kg/m^2 and SAM/SAH < median = 2.71 (plasma)) was −6.306. The “Effect on change in HAMD-17 score” value [3] was −0.567, the “Effect on change in HAMD-28 score” value [3] was −0.668 and the “Effect on change in HAMD-17 score” value [4] was 4.500. The “Effect on change in HAMD-28 score” value [4] was 2.769, the “Effect on change in HAMD-17 score” value (Phase I, MTHFR 677 CC and HNE-His < median) was −1.471 and the “Effect on change in HAMD-28 score” value (Phase I, MTHFR 677 CC and HNE-His < median = 3.28 (plasma)) was −2.821. For the same compound, the “Effect on change in HAMD-17 score” value [5] was −8.738, the “Effect on change in HAMD-28 score” value [5] was −9.857 and the “Effect on change in HAMD-17 score” value [6] was −7.143. The “Effect on change in HAMD-28 score” value [6] was −6.929, the “Effect on change in HAMD-17 score” value (Phase I, MTR 2756 AA) was −0.621 and the “Effect on change in HAMD-28 score” value (Phase I, MTR 2756 AA) was 0.409. The “Effect on change in HAMD-17 score” value [7] was 4.476, the “Effect on change in HAMD-28 score” value [7] was 5.524 and the “Effect on change in HAMD-17 score” value [8] was 0.306. The “Effect on change in HAMD-28 score” value [8] was 0.639, the “Effect on change in HAMD-17 score” value [9] was 3.125 and the “Effect on change in HAMD-28 score” value [9] was 5.000. The “Effect on change in HAMD-17 score” value (Phase I, MTR 2756 AA and MTRR 66 AA and HNE-His < median) was 3.000, the “Effect on change in HAMD-28 score” value (Phase I, MTR 2756 AA and MTRR 66 AA and HNE-His < median = 3.28 (plasma)) was 4.200 and the “Effect on change in HAMD-17 score” value [10] was −0.400. For the same compound, the “Effect on change in HAMD-28 score” value [10] was −1.000, the “Effect on change in HAMD-17 score” value [11] was −1.556 and the “Effect on change in HAMD-28 score” value [11] was −1.278. The “Effect on change in HAMD-17 score” value [12] was −12.905, the “Effect on change in HAMD-28 score” value [12] was −18.762 and the “Effect on change in HAMD-17 score” value (Phase I, MTR 2756 AG or GG and HNE-His >= median) was −7.125. The “Effect on change in HAMD-28 score” value (Phase I, MTR 2756 AG or GG and HNE-His >= median = 3.28 (plasma)) was −9.950, the “Effect on change in HAMD-17 score” value [13] was −6.900 and the “Effect on change in HAMD-28 score” value [13] was −9.996. The “Effect on change in HAMD-17 score” value [14] was −7.200, the “Effect on change in HAMD-28 score” value [14] was −9.800 and the “Effect on change in HAMD-17 score” value (Phase I, MTR 2756 AG or GG and MTRR 66 AG or GG and SAM/SAH < median) was −9.000. The “Effect on change in HAMD-28 score” value (Phase I, MTR 2756 AG or GG and MTRR 66 AG or GG and SAM/SAH < median = 2.71 (plasma)) was −12.741, the “Effect on change in HAMD-17 score” value (Phase I, MTR 2756 AG or GG and SAM/SAH < median) was −9.800 and the “Effect on change in HAMD-28 score” value (Phase I, MTR 2756 AG or GG and SAM/SAH < median = 2.71 (plasma)) was −14.993. The “Effect on change in HAMD-17 score” value (Phase I, MTR 2756 AG/GG) was −7.143, the “Effect on change in HAMD-28 score” value (Phase I, MTR 2756 AG/GG) was −10.926 and the “Effect on change in HAMD-17 score” value (Phase I, MTRR 66 AA and HNE-His < median) was −1.167. For the same compound, the “Effect on change in HAMD-28 score” value (Phase I, MTRR 66 AA and HNE-His < median = 3.28 (plasma)) was −4.167, the “Effect on change in HAMD-17 score” value [15] was −0.125 and the “Effect on change in HAMD-28 score” value [15] was 0.500. The “Effect on change in HAMD-17 score” value [16] was −5.958, the “Effect on change in HAMD-28 score” value [16] was −6.975 and the “Effect on change in HAMD-17 score” value (Phase I, MTRR 66 AG or GG and SAM/SAH < median) was −5.062. The “Effect on change in HAMD-28 score” value (Phase I, MTRR 66 AG or GG and SAM/SAH < median = 2.71 (plasma)) was −6.498, the “Effect on change in HAMD-17 score” value [17] was −3.670 and the “Effect on change in HAMD-28 score” value [17] was −4.227. For the same compound, the “Effect on change in HAMD-17 score” value (Phase I, SAM/SAH >= med) was −0.946, the “Effect on change in HAMD-28 score” value (Phase I, SAM/SAH >= med = 2.71 (plasma)) was −1.148 and the “Effect on change in HAMD-17 score” value [18] was −0.250. For the same compound, the “Effect on change in HAMD-28 score” value [18] was −0.750, the “Effect on change in HAMD-28 score” value (Phase I, SAM/SAH*treat, first line under HAMD28) was 0.495 and the “Effect on change in HAMD-17 score” value (Phase I, baseHAMD-17*treat (interaction of base HAMD-17 with the treatment)) was 0.165. The “Effect on change in HAMD-17 score” value [19] was 2.000, the “Effect on change in HAMD-28 score” value [19] was 0.000 and the “Effect on change in HAMD-17 score” value (Phase II, BMI < 25) was −1.400.
